# Reference: patent US12263177B2, “Biologically active ganoderma lucidum compounds and synthesis of anticancer derivatives; ergosterol peroxide probes for cellular localization” (priority 2019, dated 2025)
# Like-named read-outs stand apart in the source and are kept apart here.
# Tests used:
# [1] = test system: MDA-MB-231; assay: Cytotoxicity of EP probes via CTG assay; format: cell-based, human; conditions: read-out: MDA-MB231 EC50
# [2] = test system: SUM-149; assay: Cytotoxicity of EP probes via CTG assay; format: cell-based, human
# [3] = test system: T47D; assay: Cytotoxicity of EP probes via CTG assay; format: cell-based; conditions: 72 hr
# [4] = test system: HMEC; assay: Cytotoxicity of EP probes via CTG assay, normal cells; format: cell-based; conditions: 72 hr
# [5] = test system: MDA-MB-231, SUM-149, T47D; assay: Cytotoxicity of EP analogues via CTG assay, comparison across cell lines; conditions: 72 hr
# Protocol: To better understand the structure-activity-relationship of EP, its core was modified at the C3 position of the steroid backbone. […] Both normal cell lines HMEC and BJ cells were also evaluated to determine therapeutic index.
# (§1) Either 1×10^3-4.8×10^3 or 4×10^2-1.2×10^3 cells were seeded to each well of 96- or 384-well white polystyrene flat-bottomed plates (3610 or 8804BC, Corning) in 100 μL or 30 μL media per well, respectively. The concentrations used were experimentally determined to ensure logarithmic growth during the duration of the experiment and prevent adverse effects on cell growth by DMSO exposure. The plates were incubated at 37° C. in 5% CO2 for 24 h before treatment. Stock solutions of test compounds (10 mM in DMSO) in nine 3-fold serial dilutions were dispensed via pintool (Biomek). The final concentration of DMSO was 0.3% (v/v) in each well. The plates were incubated for 72 h at 37° C. in 5% CO2 and then quenched with CellTiter-Glo® reagent (50 μL/well in 96-well plate, 30 μL/well in 384-well plate) at RT. The positive controls included staurosporine (10 μM), gambogic acid (10 μM), and a toxic quinoline generated in-house. Plates were then incubated at RT for 20 min and centrifuged at 1000 rpm for 1 min. The cytotoxicity assay was performed by using the CellTiterGlo Luminescent Cell Viability Assay kit (G7570, Promega, Madison, WI) according to the manufacturer's instructions. Luminescence was recorded in an Envision plate reader (Perkin Elmer).
# [6] = Solubility observations; format: physicochemical; conditions: DMSO
# Protocol: One of the liabilities with EP is sharing its core with cholesterol, an amphipathic molecule with part-water soluble, part-water insoluble character. Thus, while able to readily cross the cell membrane, the ability to deliver the pure compound faces challenges. EP's solubility properties are poor in DMSO or water unless warmed up to 30° C. However, in this report, EP's derivative, EP sulfonamide, was soluble at 10 mM in DMSO. Thus, the generation of a selective anti-cancer compound with greater potency than EP, and ample therapeutic window when compared to BJ normal cells, was accomplished.
# [7] = test system: SUM-149 cells; assay: Cell viability assay (CellTiter-Glo or PI staining); format: cell-based, human
# [8] = test system: BJ cells; assay: Cell viability assay in normal fibroblasts; conditions: at the concentrations tested
# Protocol: The compounds' activity was also evaluated in human and murine leukemia (KOPN8, BCR-ABL, UoCB-1, SUP-B15, NALM06) cell lines. As a control, normal human skin fibroblasts (BJ) cells and non-cancerous mammary epithelial cells (MCF10A) were used.
# Different concentrations of GLE-extracted bioactive chemical components were tested for 72-h treatment periods.
# as §1, with “The cytotoxicity assay was performed by using the CellTiterGlo Luminescent Cell Viability Assay kit (G7570, Promega, Madison, WI) according to the manufacturer's instructions.” left out
# For the CTG assay, 3 or 4 replicate assays were conducted for each experimental condition, and a minimum of 3 independent experiments were conducted for cellular assays. The mean luminescence of each experimental treatment group was normalized as a percentage of the mean intensity of untreated controls. EC50 values (μM) were calculated by Pipeline Pilot Software (Accelrys, Enterprise Platform, CA, USA). EC50 values (μM) from the viability assay were calculated from dose response curve-fitting via non-linear regression by using GraphPad Prism (Version 7.0 San Diego, CA). […]
# [9] = test system: MDA-MB-231 cells; assay: ApoTox-Glo Triplex assay (caspase 3/7); format: cell-based, human; conditions: MDA-MB-231, 24 h
# Protocol: (§2) Cells commonly fail to bypass the G1 phase of the cycle due to mutations or DNA damage, which can result in apoptosis. […] In addition, caspase 3/7 activity assays were performed as an alternate method of apoptosis detection.
# (§3) Cells (9.5×10^4/well in 75 μL of fresh medium) were dispensed in 96-well black flat bottom (8807BC, Corning) plates. The cells were incubated for 12 h at 37° C. and then treated with compounds (25 μL) for 24 h. DMSO was used as a negative control, and staurosporine was used as the positive control. The experiment was stopped by adding the Viability/Cytotoxicity Reagent and briefly mixed by orbital shaking (300-500 rpm for ˜30 sec). Plates were incubated for 30 min at 37° C., and fluorescence was measured in an Envision plate reader at the following two wavelength sets: 400Ex/505Em (Viability) 485Ex/520Em (Cytotoxicity). Then, the Caspase-Glo® 3/7 Reagent was added; plates were mixed briefly by orbital shaking (300-500 rpm for ˜30 sec), followed by an additional 30 min incubation at RT. Then luminescence, which correlates with caspase 3/7 activation, was recorded with a plate reader to determine apoptosis induction.
# [10] = test system: SUM-149 cells; assay: ApoTox-Glo Triplex assay (caspase 3/7); format: cell-based, human; conditions: SUM-149, 24 h
# Protocol: as §2, §3
# [11] = test system: MDA-MB-231 breast cancer cells; assay: De novo in-cell protein synthesis (click assay); format: cell-based, human; conditions: 2 h treatment; EP 20 μM
# Protocol: First, 2.5×10^4 cells/well were seeded in 8-well μ-slides (Ibidi®, #80826) and incubated at 37° C. for 12 h. The cells were treated with vehicle, compounds Ganoderic acid A or EP, or cycloheximide (positive control) for 2 h to determine protein synthesis as nascent proteins generated using Biovision's EZClick™ Global Protein Synthesis Assay Kit, (#K715-100, Milpitas, CA). The assay includes a robust chemical method based on an alkyne containing o-propargyl-puromycin (OP-puro) probe, which stops translation by forming covalent conjugates with nascent polypeptide chains. Truncated polypeptides are rapidly turned over by the proteasome and can be detected based on the subsequent click reaction with a fluorescent azide. The reaction was conducted according to the manufacturer's protocol. Cells were imaged at 20× with a Nikon C2 scanning confocal microscope, and the whole image montage was quantified by using Gen5 Software and Lionheart™ FX Automated Microscope (BioTek, Winooski, VT).
# [12] = test system: various breast cancer cell lines; assay: Cell viability assay, breast cancer cell line panel; format: cell-based
# [13] = test system: MDA-MB-231 cells; assay: Reactive oxygen species (ROS) measurement, CellROX; format: cell-based, human; conditions: NAC 500 μM
# [14] = test system: SUM-149 cells; assay: Reactive oxygen species (ROS) measurement, CellROX; format: cell-based, human; conditions: NAC 500 μM
# [15] = Homo sapiens, MDA-MB-231, 72 hr
Structure (SMILES),EC50 ([1]; 72 hr) [µM],"EC50 ([2]; 72 hr, read-out: SUM149 EC50) [µM]",EC50 [3] [µM],EC50 [4] [µM],cytotoxicity compared with parental compound 3 (in words) [5],also measured
CC(C)C(C)C=CC(C)C1CCC2C1(C)CCC1C23C=CC2(CC(=O)CCC12C)OO3 (stereo not shown) [3a],7,5,10,> 13,improved activity,
CC(C)C(C)C=CC(C)C1CCC2C1(C)CCC1C23C=CC2(CC(OC(=O)CCl)CCC12C)OO3 (stereo not shown) [3c],> 20,5,> 20,> 20,promising activity against SUM-149 with little or no activity observed at the tested concentrations in MDA-MB-231 and T47D,
CC(C)C(C)C=CC(C)C1CCC2C1(C)CCC1C23C=CC2(CC(OC(=O)CN=[N+]=[N-])CCC12C)OO3 (stereo not shown) [3d],> 20,10,> 20,> 20,promising activity against SUM-149 with little or no activity observed at the tested concentrations in MDA-MB-231 and T47D,
C#CCOC1CCC2(C)C3CCC4(C)C(C(C)C=CC(C)C(C)C)CCC4C34C=CC2(C1)OO4 (stereo not shown) [3e],16,10,> 20,> 20,better activity,
CCOP(=O)(COC1CCC2(C)C3CCC4(C)C(C(C)C=CC(C)C(C)C)CCC4C34C=CC2(C1)OO4)OCC (stereo not shown) [3f],9,5,> 20,> 20,improved activity,
CC(C)C(C)C=CC(C)C1CCC2C1(C)CCC1C23C=CC2(CC(OCP(=O)(O)O)CCC12C)OO3 (stereo not shown) [3g],37,5,> 20,> 20,poor activity,
CC(C)C(C)C=CC(C)C1CCC2C1(C)CCC1C23C=CC2(CC(OP(=O)([O-])OCC[N+](C)(C)C)CCC12C)OO3 (stereo not shown) [3h],25,21,17,> 20,poor activity,
CC(C)C(C)C=CC(C)C1CCC2C1(C)CCC1C23C=CC2(CC(OC(=O)CCCC(=O)O)CCC12C)OO3 (stereo not shown) [3i],33,5,18,> 20,poor activity,
C#CCCCC(=O)OC1CCC2(C)C3CCC4(C)C(C(C)C=CC(C)C(C)C)CCC4C34C=CC2(C1)OO4 (stereo not shown) [3j],8,4,11,> 13,superior activity across cell lines,
CC(C)C(C)C=CC(C)C1CCC2C1(C)CCC1C23C=CC2(CC(OC(=O)Cn4cc(CNC(=O)c5ccc6c(c5)C(=O)OC65c6ccc(N(C)C)cc6Oc6cc(N(C)C)ccc65)nn4)CCC12C)OO3 (stereo not shown) [3l],20,18,> 20,> 20,,solubility properties (in words) ([6]; water or PBS): poor solubility properties and precipitated readily in DMSO or PBS
"CCCCCOC(=O)Nc1nc(=O)n([C@@H]2O[C@H](C)[C@@H](O)[C@H]2O)cc1F [Capecitabin, reference compound]",5,5,,10,,
"COc1cccc2c1C(=O)c1c(O)c3c(c(O)c1C2=O)C[C@@](O)(C(=O)CO)C[C@@H]3O[C@H]1C[C@H](N)[C@H](O)[C@H](C)O1 [Doxorubicin, reference compound]",,,,,,"EC50 [1, 15]: 1 µM; EC50 ([2]; Homo sapiens, SUM149, 72 hr): 1 µM; EC50 ([4]; Homo sapiens, HMEC): > 10 µM"
"CC(C)C(C)C=CC(C)C1CCC2C1(C)CCC1C23C=CC2(CC(OC(=O)NS(=O)(=O)c4ccccc4)CCC12C)OO3 (stereo not shown) [EP sulfonamide, ergosterol peroxide sulfonamide]",,,,,,"EC50 ([7]; FIG. 10A, SUM-149 breast cancer cells, read-out: EC50, cancer cell viability of derivative): 12 µM; cytotoxic effects in normal BJ cells [8]: minimal; solubility in DMSO [6]: ≥ 10 mM"
"C[C@H](CC(=O)C[C@@H](C)[C@H]1C[C@H](O)[C@@]2(C)C3=C(C(=O)C[C@]12C)[C@@]1(C)CCC(=O)C(C)(C)[C@@H]1C[C@@H]3O)C(=O)O [GA-01, ganoderic acid A]",,,,,,cytotoxic effects in normal BJ cells [8]: did not induce cytotoxic effects; caspase 3/7 activity [9]: increase caspase 3/7 activity; caspase 3/7 activity [10]: increase caspase 3/7 activity; de novo protein synthesis inhibition [11]: do not inhibit de novo protein synthesis
"CC(=O)O[C@H]1C(=O)[C@@]2(C)[C@H]([C@H](OC(=O)c3ccccc3)[C@]3(O)C[C@H](OC(=O)[C@H](O)[C@@H](NC(=O)c4ccccc4)c4ccccc4)C(C)=C1C3(C)C)[C@]1(OC(C)=O)CO[C@@H]1C[C@@H]2O [Taxol, reference compound]",,,,,,"EC50 [1, 15]: 2 µM; EC50 ([2]; Homo sapiens, SUM149, 72 hr): 0.01 µM; EC50 ([4]; Homo sapiens, HMEC): > 10 µM"
CC(C)[C@@H](C)/C=C/[C@@H](C)[C@H]1CC[C@H]2C3=CC=C4C[C@@H](O)CC[C@]4(C)[C@H]3CC[C@]12C [ergosterol],,,,,,"concentration at which SUM-149 cell viability is significantly reduced ([7]; 72 h): 64 µM; cytotoxic effects in normal BJ cells [8]: did not induce cytotoxic effects; EC50 ([12]; 72-h treatment): > 50 µM; cancer cell viability significantly reduced starting at ([12]; breast cancer cellular models, 72-h): 64 µM"
"CC1=CC(=O)c2ccccc2C1=O [menadione, Menadione, reference compound]",,,,,,reduction in ROS formation in the presence of NAC [13]: about 20%; reduction in ROS formation in the presence of NAC [14]: about 20%
CCCCCCCCCCCCCCCC(=O)O [palmitic acid],,,,,,activity at the tested concentrations in the evaluated cell lines [12]: did not show activity
